Laboratory results reported in ChEMBL document CHEMBL1137864, “End-capping of the modified melanocortin tetrapeptide (p-Cl)Phe-D-Phe-Arg-Trp-NH2 as a route to hMC4R agonists” (Bioorg Med Chem Lett, 2004).

Columns and labels:
Melanocortin receptor 4 = Melanocortin receptor 4 (Homo sapiens, UniProt P32245); assay: Agonistic activity against human Melanocortin 4 receptor; assay type: functional
[1] = target: Melanocyte-stimulating hormone receptor (Homo sapiens, UniProt Q01726); assay: Agonistic activity against human Melanocortin 1 receptor; assay type: functional
[2] = target: Melanocortin receptor (M1 and M4) (Homo sapiens) (UniProt P32245+Q01726); assay: Ratio of EC50 of Melanocortin 4 receptor to that of Melanocortin 1 receptor; assay type: protein assay
Melanocortin receptor 3 = Melanocortin receptor 3 (Homo sapiens, UniProt P41968); assay: Agonistic activity against human Melanocortin 3 receptor; assay type: functional
[3] = target: Melanocortin receptor (M3 and M4) (Homo sapiens) (UniProt P32245+P41968); assay: Ratio of EC50 of Melanocortin 4 receptor to that of Melanocortin 3 receptor; assay type: protein assay

Chain of Melanocortin receptor 4 (P32245 whole entry): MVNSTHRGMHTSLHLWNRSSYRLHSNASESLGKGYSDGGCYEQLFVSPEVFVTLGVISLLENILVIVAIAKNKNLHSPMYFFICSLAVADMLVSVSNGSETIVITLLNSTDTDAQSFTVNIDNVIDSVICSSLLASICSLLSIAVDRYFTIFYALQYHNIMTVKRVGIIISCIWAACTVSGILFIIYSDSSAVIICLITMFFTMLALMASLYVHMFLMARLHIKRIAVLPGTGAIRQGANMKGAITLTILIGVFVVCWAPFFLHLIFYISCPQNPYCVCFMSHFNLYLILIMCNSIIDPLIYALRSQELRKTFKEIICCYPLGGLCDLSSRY
Chain of Melanocyte-stimulating hormone receptor (Q01726 whole entry): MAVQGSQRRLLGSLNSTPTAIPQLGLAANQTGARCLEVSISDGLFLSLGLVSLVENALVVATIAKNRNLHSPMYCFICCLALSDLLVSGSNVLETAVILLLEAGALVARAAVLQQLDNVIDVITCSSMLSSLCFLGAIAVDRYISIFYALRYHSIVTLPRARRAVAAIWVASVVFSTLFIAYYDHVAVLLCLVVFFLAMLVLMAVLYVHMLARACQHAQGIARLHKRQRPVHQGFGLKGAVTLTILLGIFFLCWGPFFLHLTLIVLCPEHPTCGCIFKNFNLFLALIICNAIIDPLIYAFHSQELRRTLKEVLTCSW
Chain of Melanocortin receptor 3 (P41968 whole entry): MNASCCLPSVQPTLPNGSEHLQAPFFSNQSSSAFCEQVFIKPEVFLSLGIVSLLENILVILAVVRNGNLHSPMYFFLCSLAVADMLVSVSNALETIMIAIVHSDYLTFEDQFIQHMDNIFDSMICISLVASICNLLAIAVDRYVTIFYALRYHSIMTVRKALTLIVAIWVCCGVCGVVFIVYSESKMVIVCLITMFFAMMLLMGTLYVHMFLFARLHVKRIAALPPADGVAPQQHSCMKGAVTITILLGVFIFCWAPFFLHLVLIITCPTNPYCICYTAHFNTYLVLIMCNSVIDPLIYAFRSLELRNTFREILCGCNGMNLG

## CNC(=O)N[C@@H](Cc1ccc(Cl)cc1)C(=O)NC(Cc1ccccc1)C(=O)N[C@@H](CCCN=C(N)N)C(=O)N[C@@H](Cc1c[nH]c2ccccc12)C(N)=O (stereo in doubt)
Melanocortin receptor 4
  EC50: 8.5 nM
[1]
  EC50: 848 nM
[2]
  Ratio: 100
Melanocortin receptor 3
  EC50: 86.5 nM
[3]
  Ratio: 10

## N=C(N)NCCC[C@H](NC(=O)C(Cc1ccccc1)NC(=O)[C@H](Cc1ccc(Cl)cc1)NC(=O)c1ccccc1)C(=O)N[C@@H](Cc1c[nH]c2ccccc12)C(N)=O (stereo in doubt)
Melanocortin receptor 4
  EC50: 135 nM
[1]
  EC50: 700 nM
[2]
  Ratio: 5
Melanocortin receptor 3
  EC50: 556 nM
[3]
  Ratio: 4

## CC(=O)N[C@@H](Cc1ccc(Cl)cc1)C(=O)NC(Cc1ccccc1)C(=O)N[C@@H](CCCN=C(N)N)C(=O)N[C@@H](Cc1c[nH]c2ccccc12)C(N)=O (stereo in doubt)
Melanocortin receptor 4
  EC50: 88.5 nM
[1]
  EC50: 867 nM
[2]
  Ratio: 10
Melanocortin receptor 3
  EC50: 553 nM
[3]
  Ratio: 6

## CCC(=O)N[C@@H](Cc1ccc(Cl)cc1)C(=O)NC(Cc1ccccc1)C(=O)N[C@@H](CCCN=C(N)N)C(=O)N[C@@H](Cc1c[nH]c2ccccc12)C(N)=O (stereo in doubt)
Melanocortin receptor 4
  EC50: 159 nM
[1]
  EC50: 1980 nM
[2]
  Ratio: 12
Melanocortin receptor 3
  EC50: 2360 nM
[3]
  Ratio: 15

## CC(=O)N[C@@H](Cc1c[nH]cn1)C(=O)NC(Cc1ccccc1)C(=O)NC(Cc1ccccc1)C(=O)N[C@@H](CCCN=C(N)N)C(=O)N[C@@H](Cc1c[nH]c2ccccc12)C(N)=O (stereo in doubt)
Melanocortin receptor 4
  EC50: 59.5 nM
[1]
  EC50: 13 nM
[2]
  Ratio: 0.1
Melanocortin receptor 3
  EC50: 170 nM
[3]
  Ratio: 0.7

## N=C(N)NCCC[C@H](NC(=O)C(Cc1ccccc1)NC(=O)[C@H](Cc1ccc(Cl)cc1)NC(=O)c1ccncc1)C(=O)N[C@@H](Cc1c[nH]c2ccccc12)C(N)=O (stereo in doubt)
Melanocortin receptor 4
  EC50: 30 nM
[1]
  EC50: 541 nM
[2]
  Ratio: 18
Melanocortin receptor 3
  EC50: 992 nM
[3]
  Ratio: 33

## C=CCNC(=O)N[C@@H](Cc1ccc(Cl)cc1)C(=O)NC(Cc1ccccc1)C(=O)N[C@@H](CCCNC(=N)N)C(=O)N[C@@H](Cc1c[nH]c2ccccc12)C(N)=O (stereo in doubt)
Melanocortin receptor 4
  EC50: 12 nM
[1]
  EC50: 505 nM
[2]
  Ratio: 42
Melanocortin receptor 3
  EC50: 45 nM
[3]
  Ratio: 4

## N=C(N)NCCC[C@H](NC(=O)C(Cc1ccccc1)NC(=O)[C@H](Cc1ccc(Cl)cc1)NC(=O)CCc1ccccc1)C(=O)N[C@@H](Cc1c[nH]c2ccccc12)C(N)=O (stereo in doubt)
Melanocortin receptor 4
  EC50: 121 nM
[1]
  EC50: 442 nM
[2]
  Ratio: 4
Melanocortin receptor 3
  EC50: 170 nM
[3]
  Ratio: 1

## CCOC(=O)N[C@@H](Cc1ccc(Cl)cc1)C(=O)NC(Cc1ccccc1)C(=O)N[C@@H](CCCN=C(N)N)C(=O)N[C@@H](Cc1c[nH]c2ccccc12)C(N)=O (stereo in doubt)
Melanocortin receptor 4
  EC50: 35 nM
[1]
  EC50: 211 nM
[2]
  Ratio: 6
Melanocortin receptor 3
  EC50: 3080 nM
[3]
  Ratio: 88

## N#CCC(=O)N[C@@H](Cc1ccc(Cl)cc1)C(=O)NC(Cc1ccccc1)C(=O)N[C@@H](CCCNC(=N)N)C(=O)N[C@@H](Cc1c[nH]c2ccccc12)C(N)=O (stereo in doubt)
Melanocortin receptor 4
  EC50: 10.5 nM
[1]
  EC50: 567 nM
[2]
  Ratio: 54
Melanocortin receptor 3
  EC50: 3040 nM
[3]
  Ratio: 290

## N=C(N)NCCC[C@H](NC(=O)C(Cc1ccccc1)NC(=O)[C@H](Cc1ccc(Cl)cc1)NC(=O)CC(N)=O)C(=O)N[C@@H](Cc1c[nH]c2ccccc12)C(N)=O (stereo in doubt)
Melanocortin receptor 4
  EC50: 14.5 nM
[1]
  EC50: 597 nM
[2]
  Ratio: 41
Melanocortin receptor 3
  EC50: 1010 nM
[3]
  Ratio: 70

## N=C(N)NCCC[C@H](NC(=O)C(Cc1ccccc1)NC(=O)[C@H](Cc1ccc(Cl)cc1)NC(=O)CC(F)(F)F)C(=O)N[C@@H](Cc1c[nH]c2ccccc12)C(N)=O (stereo in doubt)
Melanocortin receptor 4
  EC50: 150 nM
[1]
  EC50: 1210 nM
[2]
  Ratio: 8
Melanocortin receptor 3
  EC50: 886 nM

## N=C(N)NCCC[C@H](NC(=O)C(Cc1ccccc1)NC(=O)[C@H](Cc1ccc(Cl)cc1)NC(=O)Cc1ccccc1)C(=O)N[C@@H](Cc1c[nH]c2ccccc12)C(N)=O (stereo in doubt)
Melanocortin receptor 4
  EC50: 20 nM
[1]
  EC50: 699 nM
[2]
  Ratio: 35
Melanocortin receptor 3
  EC50: 43 nM
[3]
  Ratio: 2

## N=C(N)NCCC[C@H](NC(=O)C(Cc1ccccc1)NC(=O)C(Cc1ccccc1)NC(=O)[C@H](Cc1c[nH]cn1)NC(=O)CCCC(=O)c1ccccc1)C(=O)N[C@@H](Cc1c[nH]c2ccccc12)C(N)=O (stereo in doubt)
Melanocortin receptor 4
  EC50: 5 nM
[1]
  EC50: 0.05 nM
[2]
  Ratio: 0.01
Melanocortin receptor 3
  EC50: 3 nM

## CC(C)C(=O)N[C@@H](Cc1ccc(Cl)cc1)C(=O)NC(Cc1ccccc1)C(=O)N[C@@H](CCCN=C(N)N)C(=O)N[C@@H](Cc1c[nH]c2ccccc12)C(N)=O (stereo in doubt)
Melanocortin receptor 4
  EC50: 123 nM
[1]
  EC50: 565 nM
[2]
  Ratio: 5
Melanocortin receptor 3
  EC50: 497 nM
[3]
  Ratio: 4

## N=C(N)NCCC[C@H](NC(=O)C(Cc1ccccc1)NC(=O)[C@H](Cc1ccc(Cl)cc1)NC(=O)C1CC1)C(=O)N[C@@H](Cc1c[nH]c2ccccc12)C(N)=O (stereo in doubt)
Melanocortin receptor 4
  EC50: 38.5 nM
[1]
  EC50: 536 nM
[2]
  Ratio: 14
Melanocortin receptor 3
  EC50: 473 nM
[3]
  Ratio: 12

## N=C(N)NCCC[C@H](NC(=O)C(Cc1ccccc1)NC(=O)[C@H](Cc1ccc(Cl)cc1)NC(=O)c1cccnc1)C(=O)N[C@@H](Cc1c[nH]c2ccccc12)C(N)=O (stereo in doubt)
Melanocortin receptor 4
  EC50: 21 nM
[1]
  EC50: 577 nM
[2]
  Ratio: 28
Melanocortin receptor 3
  EC50: 313 nM
[3]
  Ratio: 15

## CN(C)C(=O)N[C@@H](Cc1ccc(Cl)cc1)C(=O)NC(Cc1ccccc1)C(=O)N[C@@H](CCCN=C(N)N)C(=O)N[C@@H](Cc1c[nH]c2ccccc12)C(N)=O (stereo in doubt)
Melanocortin receptor 4
  EC50: 42 nM
[1]
  EC50: 2160 nM
[2]
  Ratio: 51
Melanocortin receptor 3
  EC50: 175 nM
[3]
  Ratio: 4

## N=C(N)NCCC[C@H](NC(=O)C(Cc1ccccc1)NC(=O)[C@H](Cc1ccc(Cl)cc1)NC(=O)CCCc1ccccc1)C(=O)N[C@@H](Cc1c[nH]c2ccccc12)C(N)=O (stereo in doubt)
Melanocortin receptor 4
  EC50: 82 nM
[1]
  EC50: 113 nM
[2]
  Ratio: 1
Melanocortin receptor 3
  EC50: 207 nM
[3]
  Ratio: 3

## N=C(N)NCCC[C@H](NC(=O)C(Cc1ccccc1)NC(=O)[C@H](Cc1ccc(Cl)cc1)NC(=O)c1cccs1)C(=O)N[C@@H](Cc1c[nH]c2ccccc12)C(N)=O (stereo in doubt)
Melanocortin receptor 4
  EC50: 18.7 nM
[1]
  EC50: 892 nM
[2]
  Ratio: 48
Melanocortin receptor 3
  EC50: 644 nM
[3]
  Ratio: 34

## N=C(N)NCCC[C@H](NC(=O)C(Cc1ccccc1)NC(=O)[C@H](Cc1ccc(Cl)cc1)NC(=O)c1ccsc1)C(=O)N[C@@H](Cc1c[nH]c2ccccc12)C(N)=O (stereo in doubt)
Melanocortin receptor 4
  EC50: 27 nM
[1]
  EC50: 671 nM
[2]
  Ratio: 25
Melanocortin receptor 3
  EC50: 674 nM
[3]
  Ratio: 25

## N=C(N)NCCC[C@H](NC(=O)C(Cc1ccccc1)NC(=O)[C@H](Cc1ccc(Cl)cc1)NC(=O)CCC(=O)c1ccc(F)cc1)C(=O)N[C@@H](Cc1c[nH]c2ccccc12)C(N)=O (stereo in doubt)
Melanocortin receptor 4
  EC50: 50 nM
[1]
  EC50: 114 nM
[2]
  Ratio: 2
Melanocortin receptor 3
  EC50: 203 nM
[3]
  Ratio: 4

## CCCC(=O)N[C@@H](Cc1ccc(Cl)cc1)C(=O)NC(Cc1ccccc1)C(=O)N[C@@H](CCCN=C(N)N)C(=O)N[C@@H](Cc1c[nH]c2ccccc12)C(N)=O (stereo in doubt)
Melanocortin receptor 4
  EC50: 106 nM
[1]
  EC50: 803 nM
[2]
  Ratio: 8
Melanocortin receptor 3
  EC50: 827 nM
[3]
  Ratio: 8

## N=C(N)NCCC[C@H](NC(=O)C(Cc1ccccc1)NC(=O)[C@H](Cc1ccc(Cl)cc1)NC(=O)c1ccccn1)C(=O)N[C@@H](Cc1c[nH]c2ccccc12)C(N)=O (stereo in doubt)
Melanocortin receptor 4
  EC50: 31.3 nM
[1]
  EC50: 947 nM
[2]
  Ratio: 30
Melanocortin receptor 3
  EC50: 452 nM
[3]
  Ratio: 14

## N=C(N)NCCC[C@H](NC(=O)C(Cc1ccccc1)NC(=O)[C@H](Cc1ccc(Cl)cc1)NC(=O)CCCC(=O)c1ccccc1)C(=O)N[C@@H](Cc1c[nH]c2ccccc12)C(N)=O (stereo in doubt)
Melanocortin receptor 4
  EC50: 58 nM
[1]
  EC50: 23 nM
[2]
  Ratio: 0.4
Melanocortin receptor 3
  EC50: 41 nM
[3]
  Ratio: 0.7

## N=C(N)NCCC[C@H](NC(=O)C(Cc1ccccc1)NC(=O)[C@H](Cc1ccc(Cl)cc1)NC(=O)CCCCc1ccccc1)C(=O)N[C@@H](Cc1c[nH]c2ccccc12)C(N)=O (stereo in doubt)
Melanocortin receptor 4
  EC50: 45 nM
[1]
  EC50: 144 nM
[2]
  Ratio: 3
Melanocortin receptor 3
  EC50: 34.5 nM
[3]
  Ratio: 1

## N=C(N)NCCC[C@H](NC(=O)C(Cc1ccccc1)NC(=O)[C@H](Cc1ccc(Cl)cc1)NC(=O)c1c(F)c(F)c(F)c(F)c1F)C(=O)N[C@@H](Cc1c[nH]c2ccccc12)C(N)=O (stereo in doubt)
Melanocortin receptor 4
  EC50: 168 nM
[1]
  EC50: 555 nM
[2]
  Ratio: 3
Melanocortin receptor 3
  EC50: 1340 nM
[3]
  Ratio: 8

## N=C(N)NCCC[C@H](NC(=O)C(Cc1ccccc1)NC(=O)[C@H](Cc1ccc(Cl)cc1)NC(=O)CO)C(=O)N[C@@H](Cc1c[nH]c2ccccc12)C(N)=O (stereo in doubt)
Melanocortin receptor 4
  EC50: 114 nM
[1]
  EC50: 499 nM
[2]
  Ratio: 4
Melanocortin receptor 3
  EC50: 1450 nM
[3]
  Ratio: 13

## N=C(N)NCCC[C@H](NC(=O)C(Cc1ccccc1)NC(=O)[C@H](Cc1ccc(Cl)cc1)NC(=O)CNC=O)C(=O)N[C@@H](Cc1c[nH]c2ccccc12)C(N)=O (stereo in doubt)
Melanocortin receptor 4
  EC50: 14.1 nM
[1]
  EC50: 600 nM
[2]
  Ratio: 43
Melanocortin receptor 3
  EC50: 757 nM
[3]
  Ratio: 54

## N=C(N)NCCC[C@H](NC(=O)C(Cc1ccccc1)NC(=O)[C@H](Cc1ccc(Cl)cc1)NC(=O)C(N)=O)C(=O)N[C@@H](Cc1c[nH]c2ccccc12)C(N)=O (stereo in doubt)
Melanocortin receptor 4
  EC50: 31.3 nM
[1]
  EC50: 349 nM
[2]
  Ratio: 11
Melanocortin receptor 3
  EC50: 164 nM
[3]
  Ratio: 5

## CCCCC(=O)N[C@@H](Cc1ccc(Cl)cc1)C(=O)NC(Cc1ccccc1)C(=O)N[C@@H](CCCN=C(N)N)C(=O)N[C@@H](Cc1c[nH]c2ccccc12)C(N)=O (stereo in doubt)
Melanocortin receptor 4
  EC50: 155 nM
[1]
  EC50: 441 nM
[2]
  Ratio: 3
Melanocortin receptor 3
  EC50: 460 nM
[3]
  Ratio: 3
